The text below walks through data of US10798941B2, “Microbiocidal oxadiazole derivatives” (SYNGENTA PARTICIPATIONS AG, priority 2016, dated 2020).

Test [1] relates to Glomerella Lagenarium (Colletotrichum Lagenarium). Briefly: Glomerella lagenarium (Colletotrichum lagenarium) liquid culture / cucumber / preventative (anthracnose). It is filed as cell-based. The settings on record: Colletotrichum orbiculare, read-out: disease control. How it is done: Mycelia fragments or conidia suspensions of a fungus prepared either freshly from liquid cultures of the fungus or from cryogenic storage, are directly mixed into nutrient broth. DMSO solutions of the test compound (max. 10 mg/ml) are diluted with 0.025% Tween20 by a factor of 50 and 10 μl of this solution is pipetted into a microtiter plate (96-well format). The nutrient broth containing the fungal spores/mycelia fragments is then added to give an end concentration of the tested compound. The test plates are incubated in the dark at 24° C. and 96% relative humidity. The inhibition of fungal growth is determined photometrically after 2 to 7 days, depending on the pathosystem, and percent antifungal activity relative to the untreated check is calculated.
Conidia of the fungus from cryogenic storage are directly mixed into nutrient broth (PDB—potato dextrose broth). After placing a (DMSO) solution of test compound into a microtiter plate (96-well format), the nutrient broth containing the fungal spores is added.
The following compounds at 20 ppm in the applied formulation give at least 80% disease control in this test when compared to untreated control under the same conditions, which show extensive disease development.

For test [2], the system named is Puccinia recondita f. Sp. Tritici. Briefly: Puccinia recondita f. sp. tritici / wheat / leaf disc preventative (brown rust). It is filed as in vivo. The settings on record: foliar, 168 h, read-out: disease control. How it is done: Leaf disks or leaf segments of various plant species are cut from plants grown in a greenhouse. The cut leaf disks or segments are placed in multiwell plates (24-well format) onto water agar. The leaf disks are sprayed with a test solution before (preventative) or after (curative) inoculation. Compounds to be tested are prepared as DMSO solutions (max. 10 mg/ml) which are diluted to the appropriate concentration with 0.025% Tween20 just before spraying. The inoculated leaf disks or segments are incubated under defined conditions (temperature, relative humidity, light, etc.) according to the respective test system. A single evaluation of disease level is carried out 3 to 14 days after inoculation, depending on the pathosystem. Percent disease control relative to the untreated check leaf disks or segments is then calculated.
Wheat leaf segments cv. Kanzler were placed on agar in multiwell plates (24-well format) and sprayed with the formulated test compound diluted in water. The leaf disks were inoculated with a spore suspension of the fungus 1 day after application. The inoculated leaf segments were incubated at 19° C. and 75% relative humidity (rh) under a light regime of 12 hours light/12 hours darkness in a climate cabinet and the activity of a compound was assessed as percent disease control compared to untreated when an appropriate level of disease damage appears in untreated check leaf segments (7 to 9 days after application).
The following compounds at 200 ppm in the applied formulation give at least 80% disease control in this test when compared to untreated control leaf disks under the same conditions, which show extensive disease development.

[3] abbreviates: 20 ppm in the applied formulation, liquid culture in PDB, 24° C., inhibition of growth measured photometrically 3 to 4 days after application, vs untreated.
[4] abbreviates: 200 ppm in the applied formulation, wheat leaf segments cv. Kanzler, preventative, inoculated 1 day after application, assessed 7 to 9 days after application, vs untreated.

Where two headings read alike, the source gives them in different places.

On to `COc1cc(Cl)cnc1OCc1cn(Cc2ccc(-c3noc(C(F)(F)F)n3)cc2)nn1` [Compound 1.29, 3-[4-[[4-[(5-chloro-3-methoxy-2-pyridyl)oxymethyl]triazol-1-yl]methyl]phenyl]-5-(trifluoromethyl)-1,2,4-oxadiazole], for which the inhibition of growth at 20 ppm in test [1] (setting [3]) was no less than 80%. Moreover, in test [2] (setting [4]), the pest or weed control at 200 ppm was no less than 80%.
As to `FC(F)(F)c1nc(-c2ccc(Cn3ccnc3-c3ccccc3)cc2)no1` [Compound 1.47, 3-[4-[(2-phenylimidazol-1-yl)methyl]phenyl]-5-(trifluoromethyl)-1,2,4-oxadiazole], the inhibition of growth at 20 ppm in test [1] (setting [3]) was no less than 80%. Besides, the pest or weed control at 200 ppm in test [2] (setting [4]) is no less than 80%.
`FC(F)(F)c1nc(-c2ccc(Cn3c(C(F)(F)F)nc4ccccc43)cc2)no1` [Compound 1.48, 5-(trifluoromethyl)-3-[4-[[2-(trifluoromethyl)benzimidazol-1-yl]methyl]phenyl]-1,2,4-oxadiazole]: the inhibition of growth at 20 ppm in test [1] (setting [3]) is no less than 80%. In addition, in test [2] (setting [4]), the pest or weed control at 200 ppm is no less than 80%.
`CC(=O)c1cn(Cc2ccc(-c3noc(C(F)(F)F)n3)cc2)c2ccccc12` [Compound 1.50, 1-[1-[[4-[5-(trifluoromethyl)-1,2,4-oxadiazol-3-yl]phenyl]methyl]indol-3-yl]ethanone]: in test [1], the inhibition of growth at 20 ppm was no less than 80%. Further, the pest or weed control at 200 ppm in test [2] was no less than 80%.
`Cc1ccc2c(ccn2Cc2ccc(-c3noc(C(F)(F)F)n3)cc2)c1` [Compound 1.52, 3-[4-[(5-methylindol-1-yl)methyl]phenyl]-5-(trifluoromethyl)-1,2,4-oxadiazole]: the inhibition of growth at 20 ppm in test [1] (setting [3]) was no less than 80%. In test [2] (setting [4]), the pest or weed control at 200 ppm is no less than 80%.
For the compound `Cc1nccn1Cc1ccc(-c2noc(C(F)(F)F)n2)cc1` [Compound 1.53, 3-[4-[(2-methylimidazol-1-yl)methyl]phenyl]-5-(trifluoromethyl)-1,2,4-oxadiazole], the pest or weed control at 200 ppm in test [2] (setting [4]) is no less than 80%.
As to `COc1ccc2c(c1)c(C=O)cn2Cc1ccc(-c2noc(C(F)(F)F)n2)cc1` [Compound 1.57, 5-methoxy-1-[[4-[5-(trifluoromethyl)-1,2,4-oxadiazol-3-yl]phenyl]methyl]indole-3-carbaldehyde], the inhibition of growth at 20 ppm in test [1] (setting [3]) is no less than 80%. Also, the pest or weed control at 200 ppm in test [2] (setting [4]) was no less than 80%.
`N#CCc1nc2ccccc2n1Cc1ccc(-c2noc(C(F)(F)F)n2)cc1` [Compound 1.58, 2-[1-[[4-[5-(trifluoromethyl)-1,2,4-oxadiazol-3-yl]phenyl]methyl]benzimidazol-2-yl]acetonitrile]: in test [1] (setting [3]), the inhibition of growth at 20 ppm was no less than 80%. Besides, the pest or weed control at 200 ppm in test [2] (setting [4]) was no less than 80%.
As for `N#Cc1ccn(Cc2ccc(-c3noc(C(F)(F)F)n3)cc2)c1` [Compound 1.60, 1-[[4-[5-(trifluoromethyl)-1,2,4-oxadiazol-3-yl]phenyl]methyl]pyrrole-3-carbonitrile], the inhibition of growth at 20 ppm in test [1] (setting [3]) was no less than 80%. Also, in test [2] (setting [4]), the pest or weed control at 200 ppm is no less than 80%.
In the case of `CCc1nc2ccccc2n1Cc1ccc(-c2noc(C(F)(F)F)n2)cc1` [Compound 1.63, 3-[4-[(2-ethylbenzimidazol-1-yl)methyl]phenyl]-5-(trifluoromethyl)-1,2,4-oxadiazole], the inhibition of growth at 20 ppm in test [1] (setting [3]) is no less than 80%. Moreover, in test [2] (setting [4]), the pest or weed control at 200 ppm is no less than 80%.
In the case of `Fc1ccc(-c2nccn2Cc2ccc(-c3noc(C(F)(F)F)n3)cc2)cc1` [Compound 1.65, 3-[4-[[2-(4-fluorophenyl)imidazol-1-yl)methyl]phenyl]-5-(trifluoromethyl)-1,2,4-oxadiazole], the inhibition of growth at 20 ppm in test [1] (setting [3]) was no less than 80%. Besides, the pest or weed control at 200 ppm in test [2] (setting [4]) was no less than 80%.
Take `FC(F)(F)c1nc(-c2ccc(Cn3c(-c4ccncc4)nc4ccccc43)cc2)no1` [Compound 1.73, 3-[4-[[2-(4-pyridyl)benzimidazol-1-yl]methyl]phenyl]-5-(trifluoromethyl)-1,2,4-oxadiazole]: in test [1] (setting [3]), the inhibition of growth at 20 ppm is no less than 80%. In test [2] (setting [4]), the pest or weed control at 200 ppm was no less than 80%.
As to `O=C1CCc2cn(Cc3ccc(-c4noc(C(F)(F)F)n4)cc3)cc21` [Compound 1.74, 2-[[4-[5-(trifluoromethyl)-1,2,4-oxadiazol-3-yl]phenyl]methyl]-5,6-dihydrocyclopenta[c]pyrrol-4-one], the inhibition of growth at 20 ppm in test [1] (setting [3]) was no less than 80%. Also, the pest or weed control at 200 ppm in test [2] (setting [4]) was no less than 80%.
For `COc1ccc2c(ccn2Cc2ccc(-c3noc(C(F)(F)F)n3)cc2)c1` [Compound 1.75, 3-[4-[(5-methoxyindol-1-yl)methyl]phenyl]-5-(trifluoromethyl)-1,2,4-oxadiazole], in test [1] (setting [3]), the inhibition of growth at 20 ppm is no less than 80%. Also, in test [2] (setting [4]), the pest or weed control at 200 ppm was no less than 80%.
As for `FC(F)(F)c1nc(-c2ccc(Cn3cnc4c(Cl)cccc43)cc2)no1` [Compound 1.94, 3-[4-[(4-chlorobenzimidazol-1-yl)methyl]phenyl]-5-(trifluoromethyl)-1,2,4-oxadiazole], the inhibition of growth at 20 ppm in test [1] (setting [3]) is no less than 80%. The pest or weed control at 200 ppm in test [2] (setting [4]) was no less than 80%.
On to `FC(F)(F)c1nc(-c2ccc(Cn3cnc4cccc(Cl)c43)cc2)no1` [Compound 1.95, 3-[4-[(7-chlorobenzimidazol-1-yl)methyl]phenyl]-5-(trifluoromethyl)-1,2,4-oxadiazole], for which, in test [1] (setting [3]), the inhibition of growth at 20 ppm is no less than 80%. Further, in test [2] (setting [4]), the pest or weed control at 200 ppm was no less than 80%.
As for `Cc1cn(Cc2ccc(-c3noc(C(F)(F)F)n3)cc2Cl)c(C)n1` [Compound 1.105, 3-[3-chloro-4-[(2,4-dimethylimidazol-1-yl)methyl]phenyl]-5-(trifluoromethyl)-1,2,4-oxadiazole], the pest or weed control at 200 ppm in test [2] (setting [4]) is no less than 80%.
For `FC(F)(F)c1nc(-c2ccc(Cn3cnc(Br)c3)c(Cl)c2)no1` [Compound 1.107, 3-[4-[(4-bromoimidazol-1-yl)methyl]-3-chloro-phenyl]-5-(trifluoromethyl)-1,2,4-oxadiazole], in test [1] (setting [3]), the inhibition of growth at 20 ppm was no less than 80%. Also, the pest or weed control at 200 ppm in test [2] (setting [4]) was no less than 80%.
`COC(=O)c1ncn(Cc2ccc(-c3noc(C(F)(F)F)n3)cc2Cl)n1` [Compound 1.108, methyl 1-[[2-chloro-4-[5-(trifluoromethyl)-1,2,4-oxadiazol-3-yl]phenyl]methyl]-1,2,4-triazole-3-carboxylate]: the inhibition of growth at 20 ppm in test [1] (setting [3]) was no less than 80%. In addition, the pest or weed control at 200 ppm in test [2] (setting [4]) was no less than 80%.
For the compound `Fc1cc(-c2noc(C(F)(F)F)n2)ccc1Cn1cccc2ccnc1-2` [Compound 1.125, 3-[3-fluoro-4-(pyrrolo[2,3-b]pyridin-7-ylmethyl)phenyl]-5-(trifluoromethyl)-1,2,4-oxadiazole], in test [2] (setting [4]), the pest or weed control at 200 ppm is no less than 80%.
Take `Cc1nccn1Cc1ccc(-c2noc(C(F)(F)F)n2)cn1` [Compound 1.139, 3-[6-[(2-methylimidazol-1-yl)methyl]-3-pyridyl]-5-(trifluoromethyl)-1,2,4-oxadiazole]: the pest or weed control at 200 ppm in test [2] (setting [4]) is no less than 80%.
The same measure, in the same setting: with `FC(F)(F)c1nc(-c2ccc(CN3CCOCC3)cc2)no1` [Compound 1.301, 4-[[4-[5-(trifluoromethyl)-1,2,4-oxadiazol-3-yl]phenyl]methyl]morpholine] the figure was no less than 80%.
Still for that read-out and setting: with `C[C@@H]1CN(Cc2ccc(-c3noc(C(F)(F)F)n3)cc2)C[C@@H](C)O1` [Compound 1.308, (2R,6R)-2,6-dimethyl-4-[[4-[5-(trifluoromethyl)-1,2,4-oxadiazol-3-yl]phenyl]methyl]morpholine] the figure was no less than 80%.
